Measurements from patent publication US10947252B2, “Inhibitors of KEAP1-Nrf2 protein-protein interaction” (Janssen Pharmaceutica NV, priority 2018, dated 2021).

Columns and labels:
[1] = molecular target: Kelch domain of human KEAP1 (321-624 aa) (Homo sapiens (Human), UniProt Q14145); experiment: KEAP1 KELCH ThermoFluor binding assay; settings: KEAP Kelch […], 1,8-ANS, pH 7.0, average of results obtained, read-out: Tf Kd;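 note: Ligand-induced melting temperature shift of E. coli-expressed KEAP1 Kelch protein, Kd estimated from concentration-response curves of ΔTm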
[2] = system: Glo-Response ARE-luc2P HEK293 cell line; experiment: ARE luciferase reporter cell-based assay; settings: Homo sapiens, HEK293, 24 h, average of results obtained;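 note: luciferase signal tracks Nrf2 activation of the ARE once compounds disrupt KEAP1-Nrf2 binding, read with One-Glo reagent, DMSO serving as low control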

Sequence of Kelch domain of human KEAP1 (321-624 aa) (Q14145 321-624): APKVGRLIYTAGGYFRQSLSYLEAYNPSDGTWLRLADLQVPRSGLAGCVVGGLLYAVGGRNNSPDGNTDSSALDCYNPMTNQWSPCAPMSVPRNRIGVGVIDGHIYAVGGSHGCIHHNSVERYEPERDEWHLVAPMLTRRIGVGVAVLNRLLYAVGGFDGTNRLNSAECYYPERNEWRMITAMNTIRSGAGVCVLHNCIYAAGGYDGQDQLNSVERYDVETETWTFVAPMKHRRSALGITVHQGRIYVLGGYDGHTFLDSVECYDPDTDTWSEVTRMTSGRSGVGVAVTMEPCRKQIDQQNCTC

| SMILES | Kd [1] [nM] | EC50 [2] [nM] |
| --- | --- | --- |
| Cc1ccc(C(CC(=O)O)c2ccc3c(nnn3C3CC3)c2C)cc1CN1C[C@@]2(C)CCCN2c2ncccc2S1(=O)=O (mixture of isomers) [Example 221, (R/S)-3-(1-Cyclopropyl-4-methyl-1H-benzo[d][1,2,3]triazol-5-yl)-3-(4-methyl-3-(((*R)-7a-methyl-5,5-dioxido-7a,8,9,10-tetrahydropyrido[2,3-f]pyrrolo[2,1-d][1,2,5]thiadiazepin-6(7H)-yl)methyl)phenyl)propanoic Acid] | 19 | 580 |
| Cc1ccc(C(CC(=O)O)c2ccc3c(nnn3C3CC3)c2C)cc1CN1C[C@@H]2CCCCN2c2ncccc2S1(=O)=O (mixture of isomers) [Example 397, (R/S)-3-(1-Cyclopropyl-4-methyl-1H-benzo[d][1,2,3]triazol-5-yl)-3-(3-(((*S)-5,5-dioxido-7,7a,8,9,10,11-hexahydro-6H-dipyrido[2,1-d:2′,3′-f][1,2,5]thiadiazepin-6-yl)methyl)-4-methylphenyl)propanoic Acid] | < 1 | 11 |
| CCn1nnc2c(C)c(C(CC(=O)O)c3ccc(C)c(CN4CC5(CCOCC5)Oc5ccc(F)cc5S4(=O)=O)n3)ccc21 (racemic) [Example 417, 3-(1-Ethyl-4-methyl-1H-benzo[d][1,2,3]triazol-5-yl)-3-(6-((8-fluoro-1,1-dioxido-2′,3′,5′,6′-tetrahydrospiro[benzo[b][1,4,5]oxathiazepine-4,4′-pyran]-2(3H)-yl)methyl)-5-methylpyridin-2-yl)propanoic acid] | < 1 | 1.77 |
| Cc1ccc(C(CC(=O)O)c2ccn3c(C(F)(F)F)nnc3c2C)nc1CN1CC2(CC2)Oc2ncccc2S1(=O)=O (racemic) [Example 481, (R/S)-3-(6-((1′,1′-Dioxidospiro[cyclopropane-1,4′-pyrido[2,3-b][1,4,5]oxathiazepin]-2′(3′H)-yl)methyl)-5-methylpyridin-2-yl)-3-(8-methyl-3-(trifluoromethyl)-[1,2,4]triazolo[4,3-a]pyridin-7-yl)propanoic Acid] | < 1 | 1290 |
| Cc1cnc2c(c1)S(=O)(=O)N(Cc1cc(C(c3ccn4c(C(F)F)nnc4c3C)C(C)(C)C(=O)O)ccc1C)CC1(CCOCC1)O2 (racemic) [Example 575, (R/S)-3-(3-(Difluoromethyl)-8-methyl-[1,2,4]triazolo[4,3-a]pyridin-7-yl)-2,2-dimethyl-3-(4-methyl-3-((8′-methyl-1′,1′-dioxido-2,3,5,6-tetrahydrospiro[pyran-4,4′-pyrido[2,3-b][1,4,5]oxathiazepin]-2′(3′H)-yl)methyl)phenyl)propanoic Acid] | < 1 | 6.62 |
| Cc1cnc2c(c1)S(=O)(=O)N(Cc1cc(C(c3ccn4c(C(F)(F)F)nnc4c3C)C(C)(C)C(=O)O)cnc1C)CC1(CCOCC1)O2 (racemic) [Example 584, (R/S)-2,2-Dimethyl-3-(8-methyl-3-(trifluoromethyl)-[1,2,4]triazolo[4,3-a]pyridin-7-yl)-3-(6-methyl-5-((8′-methyl-1′,1′-dioxido-2,3,5,6-tetrahydrospiro[pyran-4,4′-pyrido[2,3-b][1,4,5]oxathiazepin]-2′(3′H)-yl)methyl)pyridin-3-yl)propanoic Acid] | < 1 | 478 |
| Cc1cnc2c(c1)S(=O)(=O)N(Cc1cc(C(c3ccn4c(C(F)(F)F)nnc4c3C)C(C)(C)C(=O)O)ncc1C)CC1(CC1)O2 (racemic) [Example 587, (R/S)-2,2-Dimethyl-3-(8-methyl-3-(trifluoromethyl)-[1,2,4]triazolo[4,3-a]pyridin-7-yl)-3-(5-methyl-4-((8′-methyl-1′,1′-dioxidospiro[cyclopropane-1,4′-pyrido[2,3-b][1,4,5]oxathiazepin]-2′(3′H)-yl)methyl)pyridin-2-yl)propanoic Acid] | < 1 | 17.4 |
| Cc1ccc([C@H](c2cc(C)n3c(C(F)(F)F)nnc3c2C)C(C)C(=O)O)cc1CN1C[C@@H]2CCCCN2c2ncccc2S1(=O)=O (relative stereo) [Example 133, (3*R)-3-(5,8-Dimethyl-3)-(trifluoromethyl)-[1,2,4-triazolo[4,3-a]pyridine-7-yl)-3-(3-(((*S)-5,5-dioxido-7,7a,8,9,10,11-hexahydro-6H-dipyrido[2,1-d:2′,3′-f][1,2,5]thiadiazepin-6-yl)methyl)-4-methylphenyl)-2-methylpropanoic Acid] | < 1 | 2 |
| Cc1ccc([C@@H](c2cc(C)n3c(C(F)(F)F)nnc3c2C)C(C)C(=O)O)cc1CN1C[C@@H]2CCCCN2c2ncccc2S1(=O)=O (relative stereo) [Example 134, (3*S)-3-(5,8-Dimethyl-3)-(trifluoromethyl)-[1,2,4-triazolo[4,3-a]pyridine-7-yl)-3-(3-(((*S)-5,5-dioxido-7,7a,8,9,10,11-hexahydro-6H-dipyrido[2,1-d:2′,3′-][1,2,5]thiadiazepin-6-yl)methyl)-4-methylphenyl)-2-methylpropanoic Acid] | < 1 | 61.3 |

More lines, main results first:

| Kd [1] [nM] | SMILES | EC50 [2] [nM] |
| --- | --- | --- |
| < 1 | Cc1ccc(C(CC(=O)O)c2ccc3c(nnn3C3CC3)c2C)cc1CN1C[C@]2(C)CCCN2c2ncccc2S1(=O)=O (mixture of isomers) [Example 218, (R/S)-3-(1-Cyclopropyl-4-methyl-1H-benzo[d][1,2,3]triazol-5-yl)-3-(4-methyl-3-(((*S)-7a-methyl-5,5-dioxido-7a,8,9,10-tetrahydropyrido[2,3-f]pyrrolo[2,1-d][1,2,5]thiadiazepin-6(7H)-yl)methyl)phenyl)propanoic Acid] | 6.6 |
| < 1 | Cc1cnc2c(c1)S(=O)(=O)N(Cc1cc(C(c3ccc4c(nnn4C4CC4)c3C)C(C)(C)C(=O)O)cnc1C)CC1(CCOCC1)O2 (racemic) [Example 227, (R/S)-3-(1-Cyclopropyl-4-methyl-1H-benzo[d][1,2,3]triazol-5-yl)-2,2-dimethyl-3-(6-methyl-5-((8′-methyl-1′,1′-dioxido-2,3,5,6-tetrahydrospiro[pyran-4,4′-pyrido[2,3-b][1,4,5]oxathiazepin]-2′(3′H)-yl)methyl)pyridin-3-yl)propanoic Acid] | 22 |
| < 1 | Cc1ccc(C(CC(=O)O)c2ccc3c(nnn3CC3CC3)c2C)cc1CN1C[C@@H]2CCCCN2c2ncccc2S1(=O)=O (mixture of isomers) [Example 231, (R/S)-3-(1-(Cyclopropylmethyl)-4-methyl-1H-benzo[d][1,2,3]triazol-5-yl)-3-(3-(((*S)-5,5-dioxido-7,7a,8,9,10,11-hexahydro-6H-dipyrido[2,1-d:2′,3′-f][1,2,5]thiadiazepin-6-yl)methyl)-4-methylphenyl)propanoic Acid] | 7 |
| < 1 | Cc1ccc(C(CC(=O)O)c2ccc3c(nnn3CC3CC3)c2C)cc1CN1C[C@H]2CCCCN2c2ncccc2S1(=O)=O (mixture of isomers) [Example 234, (R/S)-3-(1-(Cyclopropylmethyl)-4-methyl-1H-benzo[d][1,2,3]triazol-5-yl)-3-(3-(((*R)-5,5-dioxido-7,7a,8,9,10,11-hexahydro-6H-dipyrido[2,1-d:2′,3′-f][1,2,5]thiadiazepin-6-yl)methyl)-4-methylphenyl)propanoic Acid] | 3.3 |
| < 1 | CCn1nnc2c(C)c(C(CC(=O)O)c3ccc(C)c(CN4CC5(COC5)Oc5ncccc5S4(=O)=O)n3)ccc21 (racemic) [Example 240, (R/S)-3-(6-((1′,1′-Dioxidospiro[oxetane-3,4′-pyrido[2,3-b][1,4,5]oxathiazepin]-2′(3′H)-yl)methyl)-5-methylpyridin-2-yl)-3-(1-ethyl-4-methyl-1H-benzo[d][1,2,3]triazol-5-yl)propanoic Acid] | 85 |
| < 1 | CCn1nnc2c(C)c(C(CC(=O)O)c3ccc(C)c(CN4CC5(CC5)Oc5ncccc5S4(=O)=O)n3)ccc21 (racemic) [Example 243, (R/S)-3-(6-((1′,1′-Dioxidospiro[cyclopropane-1,4′-pyrido[2,3-b][1,4,5]oxathiazepin]-2′(3′H)-yl)methyl)-5-methylpyridin-2-yl)-3-(1-ethyl-4-methyl-1H-benzo[d][1,2,3]triazol-5-yl)propanoic Acid] | 35 |
| < 1 | Cc1cnc2c(c1)S(=O)(=O)N(Cc1cc(C(c3ccn4c(C5CC5)nnc4c3C)C(C)(C)C(=O)O)ccc1C)CC1(CC1)O2 (racemic) [Example 391, (R/S)-3-(3-Cyclopropyl-8-methyl-[1,2,4]triazolo[4,3-a]pyridin-7-yl)-2,2-dimethyl-3-(4-methyl-3-((8′-methyl-1′,1′-dioxidospiro[cyclopropane-1,4′-pyrido[2,3-b][1,4,5]oxathiazepin]-2′(3′H)-yl)methyl)phenyl)propanoic Acid] | 26.7 |
| < 1 | Cc1cnc2c(c1)S(=O)(=O)N(Cc1cc(C(c3ccc4c(nnn4C4CC4)c3C)C(C)(C)C(=O)O)cnc1C)CC1(CC1)O2 (racemic) [Example 394, (R/S)-3-(1-Cyclopropyl-4-methyl-1H-benzo[d][1,2,3]triazol-5-yl)-2,2-dimethyl-3-(6-methyl-5-((8′-methyl-1′,1′-dioxidospiro[cyclopropane-1,4′-pyrido[2,3-b][1,4,5]oxathiazepin]-2′(3′H)-yl)methyl)pyridin-3-yl)propanoic Acid] | 40.1 |
| 0.024 | Cc1ccc([C@@H](CC(=O)O)c2ccc3c(nnn3CC3CC3)c2C)cc1CN1C[C@]2(C)CCCN2c2ncccc2S1(=O)=O (relative stereo) [Example 11, 3-(1-(Cyclopropylmethyl)-4-methyl-1H-benzo[d][1,2,3]triazol-5-yl)-3-(4-methyl-3-(((*S)-7a-methyl-5,5-dioxido-7a,8,9,10-tetrahydropyrido[2,3-f]pyrrolo[2,1-d][1,2,5]thiadiazepin-6(7H)-yl)methyl)phenyl)propanoic Acid] | 4.2 |
